Columns and labels:
TGR12 = format: cell-based, human; settings: CHO-TGR12, 1 μM
Procedure: CHO/dhfr^− cells (hereinafter CHO) were incubated in α-MEM (Invitrogen) supplemented with 10% fetal calf serum. After a termination codon in the TGR12-encoding nucleotide sequence was removed, a nucleotide sequence ligated with the nucleotide sequence encoding GFP (Wako Pure Chemical) [hereinafter briefly referred to as TGR12-GFP (DNA having the nucleotide sequence represented by SEQ ID NO: 31)] was incorporated into vector plasmid pAKKO-111H (the same vector plasmid as pAKKO1.11H described in Biochim. Biophys. Acta, 1219, 251-259 (1994)) for animal cell expression, and the vector plasmid was stably expressed to establish TGR12-GFP-expressed CHO cell line (hereinafter CHO-TGR12). CHO-TGR12 was incubated in nucleic acid-free α-MEM medium (Invitrogen) containing 10% dialyzed fetal calf serum.
CHO-TGR12 was plated in a 96-well plate at a density of 30,000 cells/well. After incubation overnight, the medium was discarded and 100 μL/well of assay buffer [Hank's Balanced Salt Solution (Invitrogen), 20 mM HEPES (Dojin Chemical Laboratory) and 2.5 mM Probenecid (Sigma)] containing 4 μM Fluo3-AM (Dojin Chemical Laboratory) was added, which was then allowed to stand for an hour at 37° C. […] After the cells were washed with assay buffer, fluorescence reflecting changes in intracellular calcium levels was assayed on FLIPR (Molecular Device). Ten seconds after initiation of the assay, 50 μL of a sample was added at a rate of 50 μL/second. Fluorescence measurement was taken every 1 second during the first 60 seconds and then every 6 seconds during the next 120 seconds; the highest fluorescence intensity over a 3 minute period was taken as the maximum activity under the stimulation condition, representing the mean value of 3 wells. The EC50 values were determined using Graphpad PRISM 4 (Graphpad Software).

RBL-2H3 = assay: Intracellular calcium increasing activity in RBL2H3 (FLIPR); format: cell-based; settings: RBL2H3, 1 μM
Procedure: (§1) RBL-2H3 (hereinafter RBL2H3) was incubated in α-MEM (Invitrogen) supplemented with 10% fetal calf serum. Vector plasmid pcDNA3.1 for animal cell expression, in which the nucleotide sequence containing the initiation codon to the termination codon of human TGR12 (DNA having the nucleotide sequence represented by SEQ ID NO: 32) was incorporated, was stably expressed in RBL-2H3 to establish human TGR12-expressed RBL-2H3 cell line (hereinafter RBL2H3-TGR12). RBL2H3-TGR12 was incubated in α-MEM (Invitrogen) supplemented with 10% fetal calf serum and 200 μg/mL of Geneticin.
(§2) The intracellular calcium increasing activity was assayed as follows. RBL2H3 and RBL2H3-TGR12 were plated in a 96-well plate at a density of 40,000 cells/well and incubated overnight. The medium was then discarded and 100 μL/well of 4 μM Fluo3-AM (Dojin Kagaku)-containing assay buffer [Hank's Balanced Salt Solution (Invitrogen), 20 mM HEPES (Dojin Kagaku) and 2.5 mM Probenecid (Sigma)] was added. The mixture was allowed to stand for an hour at 37° C. Various TGR12 (Peptide Institute, Inc.) or calcium ionophore A23187 (Wako Pure Chemical) was diluted in 0.05% CHAPS-containing assay buffer. After the cells were washed with the assay buffer, fluorescence emitted with changes in intracellular calcium was measured using FLIPR (Molecular Device). A sample, 50 μL, was added at a rate of 50 μL/sec. 10 seconds after initiation of the assay. Fluorescence was measured every 1 second during the first 60 seconds and every 6 seconds during the next 120 seconds. The highest fluorescence intensity during 3 minutes was made the maximum activity under the stimulation conditions, which was taken as an average of 3 wells. The EC50 values were calculated using Graphpad PRISM 4 (Graphpad Software).

human TGR12 = molecular target: T1, human TGR12 (Homo sapiens, UniProt Q96LB1); assay: Intracellular calcium increasing activity in RBL2H3-TGR12 (FLIPR); format: cell-based; settings: RBL2H3-TGR12, 1 μM
T1 construct: expressed in transfected cells
T1 sequence (Q96LB1 1-330): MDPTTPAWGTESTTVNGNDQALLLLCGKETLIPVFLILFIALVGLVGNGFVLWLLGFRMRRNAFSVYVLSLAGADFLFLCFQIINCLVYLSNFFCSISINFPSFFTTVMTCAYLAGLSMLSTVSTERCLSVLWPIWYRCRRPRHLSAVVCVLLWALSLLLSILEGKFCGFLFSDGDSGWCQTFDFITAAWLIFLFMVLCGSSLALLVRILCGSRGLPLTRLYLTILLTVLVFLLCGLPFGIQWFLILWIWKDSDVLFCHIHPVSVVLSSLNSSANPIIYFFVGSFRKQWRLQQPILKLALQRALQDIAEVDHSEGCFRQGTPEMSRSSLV
Procedure: as §1, §2

[1] = test system: human mast cell line LAD 2; assay: Effect of NK1 receptor antagonists on substance P- or A23187-induced degranulation of LAD 2; format: cell-based
Procedure: Subsequently, Tyrode's buffer containing 50 μL of NK1 antagonist GR-82334 (Sigma, Inc.) in various concentrations or L-703606 (Sigma, Inc.) was added and incubation was continued at 37° C. for 5 minutes. […] Next, 0.2 M glycine/NaCO3 (pH 10.7) was added in a volume of 0.1-fold of the reaction solution to stop the reaction. The activity was then assayed using Fusion-α (Perkin-Elmer). […] The inhibition activity by the NK1 receptor antagonist was expressed as the percentage of the β-hexosaminidase activity when the NK1 antagonist was added in various concentrations, based on the β-hexosaminidase activity when no NK1 antagonist was added.

Structure (SMILES)	maximum activity in the calcium increasing effect (TGR12)	maximum activity in the calcium increasing effect (RBL-2H3)	maximum activity in the calcium increasing effect (human TGR12)	degranulation, % of β-hexosaminidase activity without NK1 antagonist ([1]; A23187 stimulation 0.3 μM, antagonist 100 nM)	degranulation, % of β-hexosaminidase activity without NK1 antagonist ([1]; A23187 stimulation 0.3 μM, antagonist 300 nM)	degranulation, % of β-hexosaminidase activity without NK1 antagonist ([1]; A23187 stimulation 0.3 μM, antagonist 1 μM)	degranulation, % of β-hexosaminidase activity without NK1 antagonist ([1]; A23187 stimulation 0.3 μM, antagonist 3 μM)	degranulation, % of β-hexosaminidase activity without NK1 antagonist ([1]; A23187 stimulation 0.3 μM, antagonist 10 μM)	degranulation, % of β-hexosaminidase activity without NK1 antagonist ([1]; A23187 stimulation 0.3 μM, antagonist 30 μM)	inhibition of the degranulation by the substance P and A23187 stimulation ([1]; concentration range of 3 μM)	inhibition of the degranulation by the substance P and A23187 stimulation ([1]; concentration range of 10 μM to 30 μM, non-specifically to TGR12 and NK1 receptor)	degranulation, % of β-hexosaminidase activity without NK1 antagonist ([1]; substance P stimulation 0.3 μM, antagonist 100 nM)	degranulation, % of β-hexosaminidase activity without NK1 antagonist ([1]; substance P stimulation 0.3 μM, antagonist 300 nM)	degranulation, % of β-hexosaminidase activity without NK1 antagonist ([1]; substance P stimulation 0.3 μM, antagonist 1 μM)	degranulation, % of β-hexosaminidase activity without NK1 antagonist ([1]; substance P stimulation 0.3 μM, antagonist 3 μM)	degranulation, % of β-hexosaminidase activity without NK1 antagonist ([1]; substance P stimulation 0.3 μM, antagonist 10 μM)	degranulation, % of β-hexosaminidase activity without NK1 antagonist ([1]; substance P stimulation 0.3 μM, antagonist 30 μM)
CNc1ccc2oc(C[C@H]3O[C@@]4(CC[C@H]3C)O[C@H]([C@H](C)C(=O)c3ccc[nH]3)[C@H](C)C[C@H]4C)nc2c1C(=O)O [A23187]	27379	25338	25624	–	–	–	–	–	–	–	–	–	–	–	–	–	–
Ic1ccccc1CN[C@@H]1C2CCN(CC2)[C@@H]1C(c1ccccc1)c1ccccc1 [L-703606]	–	–	–	98.4%	97.2%	97.4%	91.5%	37.1%	2.4%	did not inhibit	inhibited	101.1%	97.9%	98.8%	100.0%	39.4%	3.2%

From patent publication US20100068208A1, “Degranulation inhibitor” (priority 2005, published 2010)
